Experimental data taken from ChEMBL document CHEMBL4002566, “S-substituted 3,5-dinitrophenyl 1,3,4-oxadiazole-2-thiols and tetrazole-5-thiols as highly efficient antitubercular agents” (Eur J Med Chem, 2017).

Tests used:
[1] = test system: Mycobacterium tuberculosis; assay: Antimycobacterial activity against Mycobacterium tuberculosis by broth microdilution method; type: functional
Mycobacterium avium [2] = assay: Antimycobacterial activity against Mycobacterium avium CNCTC My 330/88 after 21 days by micromethod; type: functional; details: CNCTC My 330/88, 504 h
[3] = test system: Mycobacterium tuberculosis; assay: Antimycobacterial activity against Mycobacterium tuberculosis CNCTC My 331/88 after 14 days by micromethod; type: functional; details: CNCTC My 331/88, 336 h
Mycobacterium avium [4] = assay: Antimycobacterial activity against Mycobacterium avium CNCTC My 330/88 after 14 days by micromethod; type: functional; details: CNCTC My 330/88, 336 h
Mycobacterium kansasii [5] = assay: Antimycobacterial activity against Mycobacterium kansasii CNCTC My 235/80 after 14 days by micromethod; type: functional; details: CNCTC My 235/80, 336 h
Mycobacterium kansasii [6] = assay: Antimycobacterial activity against Mycobacterium kansasii 6509/96 clinical isolate after 14 days by micromethod; type: functional; details: 6509/96, 336 h
Candida albicans [7] = assay: Antifungal activity against Candida albicans ATCC 44859 after 24 hrs by broth microdilution method; type: functional; details: ATCC 44859, 24 h
Candida albicans [8] = assay: Antifungal activity against Candida albicans ATCC 44859 after 48 hrs by broth microdilution method; type: functional; details: ATCC 44859, 48 h
Candida tropicalis [9] = assay: Antifungal activity against Candida tropicalis 156 after 24 hrs by broth microdilution method; type: functional; details: Candida tropicalis, 156, 24 h
Candida tropicalis [10] = assay: Antifungal activity against Candida tropicalis 156 after 48 hrs by broth microdilution method; type: functional; details: Candida tropicalis, 156, 48 h
Pichia kudriavzevii [11] = assay: Antifungal activity against Candida krusei E28 after 24 hrs by broth microdilution method; type: functional; details: E28, 24 h
Pichia kudriavzevii [12] = assay: Antifungal activity against Candida krusei E28 after 48 hrs by broth microdilution method; type: functional; details: E28, 48 h
Nakaseomyces glabratus [13] = assay: Antifungal activity against Candida glabrata 20/I after 24 hrs by broth microdilution method; type: functional
Nakaseomyces glabratus [14] = assay: Antifungal activity against Candida glabrata 20/I after 48 hrs by broth microdilution method; type: functional
Trichosporon asahii [15] = assay: Antifungal activity against Trichosporon asahii 1188 after 24 hrs by broth microdilution method; type: functional; details: Trichosporon asahii, 1188, 24 h
Trichosporon asahii [16] = assay: Antifungal activity against Trichosporon asahii 1188 after 48 hrs by broth microdilution method; type: functional; details: Trichosporon asahii, 1188, 48 h
Aspergillus fumigatus [17] = assay: Antifungal activity against Aspergillus fumigatus 231 after 24 hrs by broth microdilution method; type: functional; details: Aspergillus fumigatus, 231, 24 h
Aspergillus fumigatus [18] = assay: Antifungal activity against Aspergillus fumigatus 231 after 48 hrs by broth microdilution method; type: functional; details: Aspergillus fumigatus, 231, 48 h
Lichtheimia corymbifera [19] = assay: Antifungal activity against Absidia corymbifera 272 after 24 hrs by broth microdilution method; type: functional; details: Lichtheimia corymbifera, 272, 24 h
Lichtheimia corymbifera [20] = assay: Antifungal activity against Absidia corymbifera 272 after 48 hrs by broth microdilution method; type: functional; details: Lichtheimia corymbifera, 272, 48 h
[21] = test system: Trichophyton mentagrophytes; assay: Antifungal activity against Trichophyton mentagrophytes 445 after 72 hrs by broth microdilution method; type: functional; details: Trichophyton mentagrophytes, 445, 72 h
[22] = test system: Trichophyton mentagrophytes; assay: Antifungal activity against Trichophyton mentagrophytes 445 after 120 hrs by broth microdilution method; type: functional; details: Trichophyton mentagrophytes, 445, 120 h
Staphylococcus aureus [23] = assay: Antibacterial activity against Staphylococcus aureus ATCC 6538 after 24 hrs by broth microdilution method; type: functional; details: ATCC 6538, 24 h
Staphylococcus aureus [24] = assay: Antibacterial activity against Staphylococcus aureus ATCC 6538 after 48 hrs by broth microdilution method; type: functional; details: ATCC 6538, 48 h
Staphylococcus aureus [25] = assay: Antibacterial activity against methicillin-resistant Staphylococcus aureus HK5996/08 after 24 hrs by broth microdilution method; type: functional; details: HK5996/08, 24 h
Staphylococcus aureus [26] = assay: Antibacterial activity against methicillin-resistant Staphylococcus aureus HK5996/08 after 48 hrs by broth microdilution method; type: functional; details: HK5996/08, 48 h
[27] = test system: Staphylococcus epidermidis; assay: Antibacterial activity against Staphylococcus epidermidis HK6996/08 after 24 hrs by broth microdilution method; type: functional; details: HK6996/08, 24 h
[28] = test system: Staphylococcus epidermidis; assay: Antibacterial activity against Staphylococcus epidermidis HK6996/08 after 48 hrs by broth microdilution method; type: functional; details: HK6996/08, 48 h
Enterococcus sp. [29] = assay: Antibacterial activity against Enterococcus sp. HK14365/08 after 24 hrs by broth microdilution method; type: functional; details: HK14365/08, 24 h
Enterococcus sp. [30] = assay: Antibacterial activity against Enterococcus sp. HK14365/08 after 48 hrs by broth microdilution method; type: functional; details: HK14365/08, 48 h
Escherichia coli [31] = assay: Antibacterial activity against Escherichia coli ATCC 8739 after 24 hrs by broth microdilution method; type: functional; details: ATCC 8739, 24 h
Escherichia coli [32] = assay: Antibacterial activity against Escherichia coli ATCC 8739 after 48 hrs by broth microdilution method; type: functional; details: ATCC 8739, 48 h
Klebsiella pneumoniae [33] = assay: Antibacterial activity against Klebsiella pneumoniae HK11750/08 after 24 hrs by broth microdilution method; type: functional; details: HK11750/08, 24 h
Klebsiella pneumoniae [34] = assay: Antibacterial activity against Klebsiella pneumoniae HK11750/08 after 48 hrs by broth microdilution method; type: functional; details: HK11750/08, 48 h
Klebsiella pneumoniae [35] = assay: Antibacterial activity against extended spectrum beta-lactamase producing Klebsiella pneumoniae HK14368/08 after 24 hrs by broth microdilution method; type: functional; details: HK14368/08, 24 h
Klebsiella pneumoniae [36] = assay: Antibacterial activity against extended spectrum beta-lactamase producing Klebsiella pneumoniae HK14368/08 after 48 hrs by broth microdilution method; type: functional; details: HK14368/08, 48 h
Pseudomonas aeruginosa [37] = assay: Antibacterial activity against Pseudomonas aeruginosa ATCC 9027 after 24 hrs by broth microdilution method; type: functional; details: ATCC 9027, 24 h
Pseudomonas aeruginosa [38] = assay: Antibacterial activity against Pseudomonas aeruginosa ATCC 9027 after 48 hrs by broth microdilution method; type: functional; details: ATCC 9027, 48 h
[39] = Cytotoxicity against human HuH7 cells assessed as cell viability at 30 uM after 48 hrs by MTS assay relative to control; type: cell-based, Huh-7; details: read-out: Activity
Huh-7 = assay: Cytotoxicity against human HuH7 cells assessed as cell viability after 48 hrs by MTS assay; type: cell-based; details: Huh-7, 48 h
A-431 = assay: Cytotoxicity against human A431 cells assessed as cell viability after 48 hrs by MTS assay; type: cell-based; details: A-431, 48 h
[40] = Cytotoxicity against human A431 cells assessed as cell viability at 30 uM after 48 hrs by MTS assay relative to control; type: cell-based, A-431; details: read-out: Activity
MDCK = assay: Cytotoxicity against MDCK cells assessed as cell viability after 48 hrs by MTS assay; type: cell-based; details: Canis lupus familiaris
[41] = Cytotoxicity against MDCK cells assessed as cell viability at 30 uM after 48 hrs by MTS assay relative to control; type: cell-based, Canis lupus familiaris; details: dog, read-out: Activity
HepG2 = assay: Cytotoxicity against human HepG2 cells assessed as cell viability after 48 hrs by MTS assay; type: cell-based; details: HepG2, 48 h
[42] = Cytotoxicity against human HepG2 cells assessed as cell viability at 30 uM after 48 hrs by MTS assay relative to control; type: cell-based; details: read-out: Activity
[43] = Selectivity index, ratio of IC50 for human HepG2 cells to MIC for Mycobacterium tuberculosis; type: toxicity; details: read-out: Selectivity Index
[44] = test system: Mycobacterium tuberculosis; assay: Antimycobacterial activity against Mycobacterium tuberculosis CNCTC My 331/88 after 21 days by micromethod; type: functional; details: CNCTC My 331/88, 504 h
Mycobacterium kansasii [45] = assay: Antimycobacterial activity against Mycobacterium kansasii CNCTC My 235/80 after 21 days by micromethod; type: functional; details: CNCTC My 235/80, 504 h
Mycobacterium kansasii [46] = assay: Antimycobacterial activity against Mycobacterium kansasii CNCTC My 235/80 after 7 days by micromethod; type: functional; details: CNCTC My 235/80, 168 h
Mycobacterium kansasii [47] = assay: Antimycobacterial activity against Mycobacterium kansasii 6509/96 clinical isolate after 21 days by micromethod; type: functional; details: 6509/96, 504 h
Mycobacterium kansasii [48] = assay: Antimycobacterial activity against Mycobacterium kansasii 6509/96 clinical isolate after 7 days by micromethod; type: functional; details: 6509/96, 168 h

CCC1Cn2cc([N+](=O)[O-])nc2O1 (configuration not stated)
0.2 µM: MIC [1]

O=[N+]([O-])c1cc(-c2nnc(SCc3ccc(Br)cc3)o2)cc([N+](=O)[O-])c1
99%: viability at 48 h, 30 µM [40]
113%: viability at 48 h, 30 µM [42]
> 30 µM: IC50 (Huh-7) | IC50 (A-431) | IC50 (MDCK) | IC50 (HepG2)
> 1000: selectivity ratio [43]
125 µM: MIC (Mycobacterium avium [2]) | MIC (Mycobacterium avium [4])
0.03 µM: MIC [3] | MIC (Mycobacterium kansasii [5]) | MIC (Mycobacterium kansasii [6]) | MIC (Mycobacterium kansasii [46]) | MIC (Mycobacterium kansasii [48])
0.06 µM: MIC [44] | MIC (Mycobacterium kansasii [45]) | MIC (Mycobacterium kansasii [47])
114%: viability at 48 h, 30 µM [41]
143%: viability at 48 h, 30 µM [39]
> 125 µM: MIC (Candida albicans [7]) | MIC (Candida albicans [8]) | MIC (Candida tropicalis [9]) | MIC (Candida tropicalis [10]) | MIC (Pichia kudriavzevii [11]) | MIC (Pichia kudriavzevii [12]) | MIC (Nakaseomyces glabratus [13]) | MIC (Nakaseomyces glabratus [14]) | MIC (Trichosporon asahii [15]) | MIC (Trichosporon asahii [16]) | MIC (Aspergillus fumigatus [17]) | MIC (Aspergillus fumigatus [18]) | MIC (Lichtheimia corymbifera [19]) | MIC (Lichtheimia corymbifera [20]) | MIC [21] | MIC [22] | MIC (Staphylococcus aureus [23]) | MIC (Staphylococcus aureus [24]) | MIC (Staphylococcus aureus [25]) | MIC (Staphylococcus aureus [26]) | MIC [27] | MIC [28] | MIC (Enterococcus sp. [29]) | MIC (Enterococcus sp. [30]) | MIC (Escherichia coli [31]) | MIC (Escherichia coli [32]) | MIC (Klebsiella pneumoniae [33]) | MIC (Klebsiella pneumoniae [34]) | MIC (Klebsiella pneumoniae [35]) | MIC (Klebsiella pneumoniae [36]) | MIC (Pseudomonas aeruginosa [37]) | MIC (Pseudomonas aeruginosa [38])
